Laboratory results reported in patent US20240174650A1, “8-(PICOLINAMIDE) SUBSTITUTED COUMARIN COMPOUND, AND PREPARATION METHOD THEREFOR AND USE THEREOF” (LONGIVITRON (SUZHOU) BIOTECHNOLOGY CO., LTD, priority 2021, published 2024).

Experiments:
[1] = test system: neuroblastoma cell SH-SY5Y; test: Cytotoxicity assay for neuroblastoma cell SH-SY5Y (AlamarBlue); assay type: cell-based; conditions: 48 hours incubation
Method: (§1) Cytotoxicity assay of compounds for neuroblastoma cell SH-SY5Y:
(§2) This testing example investigates the cytotoxicity of compounds against neuroblastoma cell SH-SY5Y, in order to determine the dose for the Parkinson ? s cell model protection assay in the next step. For the cytotoxicity assay, the specific test steps are as follows: the cultured neuroblastoma cell SH-SY5Y was grown in a 96-well cell culture plate with approximately 6000 cells per well. After overnight incubation, the culture medium was exchanged for a new one, and each well was added with different concentrations of Compounds 1-18 ([…], 10, 20, 50, 100, 200 μM), and different control samples were arranged. The cells were continued to be incubated at 37° C. for 48 hours. Each well was added with 10 μL of the dye AlamarBlue® (Invitrogen), and the cells were continued to be incubated at 37° C. for approximately 2 hours and then a color change of the staining solution could be observed; the change of absorption values was obtained on the enzyme-labeled instrument (Ex: 530 nm; Em: 590 nm). In the assay, there were 2 parallel tests for each compound with each concentration. The results were processed with software GraphPad Prism to calculate the cytotoxicity CC50 of each compound. The results are shown in Table 2 (in which Taxol is the positive control group).

[2] = target: SIRT2 recombinant protein (Homo sapiens (Human), UniProt Q8IXJ6); test: In vitro activity screening of SIRT2 inhibitors (fluorogenic Ac-Gln-Pro-Lys-[Lys-(Ac)]-AMC peptide deacetylation assay); assay type: biochemical; conditions: recombinant SIRT2 1.0 μg, 500 μM NAD+, 50 μM substrate peptide, 37° C. 2 hours
Excerpt: In vitro activity screening of SIRT2 inhibitors:
The full-length expression sequence ORF of the human SIRT2 gene is 1170 bp (Accession No.: NM_012237), and the molecular mass of the expressed SIRT2 protein is 43 KDa. The SIRT2 recombinant protein is expressed and purified according to the following steps: the SIRT2 gene was cloned into the expression vector pET-15b (primers were shown as follows: forward: 5 ? -[…]-3 ? (SEQ ID NO. 1); backward: 5 ? -[…]-3 ? (SEQ ID NO. 2)), and the expressed SIRT2 protein contained His6-tag at the N-terminus for purification. The plasmid was transformed into E. coli […], and expressed for 6 h at 18° C. with 1 mM IPTG induction. The induced E. coli cells were collected by centrifugation and frozen at −20° C. Bacterial pellet was re-suspended in 15 mL of cell lysis buffer (50 mM Tris-HCl pH 8.0, 300 mM NaCl), and the bacterial sample was disrupted by sonication for 10 min, and then centrifuged (12000×g, 20 min) at 4° C. to remove the precipitates.
The supernatant was purified by Ni^2+ NTA-agarose matrix column (Qiagen). In the purification process, the unbound proteins were first washed away with the loading buffer (50 mM Tris-HCl pH 8.0, 300 mM NaCl), subsequently, the non-specifically bound proteins were washed away by gradually increasing the concentration of imidazole (0-200 mM), and finally the purified recombinant SIRT2 protein was obtained. Imidazole was removed using a PD-10 column and the concentration of purified SIRT2 protein was determined by the Bradford method. The recombinant SIRT2 protein was stored at −20° C. in a preservation buffer (50 mM Tris-HCl, pH 8.0, 265 mM NaCl, 0.2 mM DTT, and 10% glycerol).
The SIRT2 enzyme activity assay is established based on the published studies. Firstly, peptide segment Ac-Gln-Pro-Lys-[Lys-(Ac)]-AMC, the substrate of SIRT2, was synthesized to serve as a substrate in the enzyme activity assay. The attached fluorescent label was AMC (7-Amino-4-methylcoumarin). […] The reaction was carried out at 37° C. for 2 hours. […] Afterwards, 60 μL of sample treating solution (50 mM Tris-HCl, pH 8.0, 100 mM NaCl, Trypsin and 4 mM nicotinamide) was added to the reaction solution and mixed, and placed at 37° C. for 20 min. Absorption intensity was measured by the enzyme-labeled instrument configured as an excitation light of 355 nm and an absorption light of 460 nm.

[3] = test system: SH-SY5Y cells damaged by neurotoxicant MPP+; test: Protective activity on Parkinson's disease cell model (MPP+ treated SH-SY5Y, cell viability); assay type: cell-based; conditions: compound 10 μM, MPP+ 5 mM, 48 h; FIG. 1
Method: Screening for compounds with protective activity on Parkinson ? s disease cell model:
For the screening test for protective effects on the Parkinson ? s disease cell model, the commonly recognized neurotoxicant MPP^+ (5 mM) is used on the neuroblastoma cell SH-SY5Y to construct the Parkinson ? s disease cell model. This neurotoxicant acts on the SH-SY5Y cell, induces abnormal accumulation of α-synuclein in the cells and causes Parkinson ? s disease-like neurotoxicity. The specific test method is as follows: approximately 20000 SH-SY5Y cells were grown in a 96-well cell plate and cultured overnight. […] The cell viability of the Parkinson ? s disease cell model was determined to assess the protective effects of the compounds on the Parkinson ? s cell model. The test data were analyzed by using GraphPad Prism.

[4] = Cytotoxicity assay for neuroblastoma cell SH-SY5Y (AlamarBlue); assay type: cell-based; conditions: human, SH-SY5Y neuroblastoma cells, 48 hours incubation
Method: as §1, §2

SIRT2 recombinant protein, sequence (Q8IXJ6 whole entry): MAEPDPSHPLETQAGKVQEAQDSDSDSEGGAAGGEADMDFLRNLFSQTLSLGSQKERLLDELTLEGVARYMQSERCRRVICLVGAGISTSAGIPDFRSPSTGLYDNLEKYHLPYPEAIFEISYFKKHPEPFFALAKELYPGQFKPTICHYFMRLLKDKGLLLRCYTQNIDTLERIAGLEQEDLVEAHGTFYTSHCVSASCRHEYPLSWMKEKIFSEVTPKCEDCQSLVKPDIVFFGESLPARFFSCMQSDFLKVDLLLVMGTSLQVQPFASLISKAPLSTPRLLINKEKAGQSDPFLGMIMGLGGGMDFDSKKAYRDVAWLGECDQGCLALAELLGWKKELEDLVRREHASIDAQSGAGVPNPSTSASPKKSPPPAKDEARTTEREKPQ

Compound | IC50 [2] [nM] | CC50 [1] [μmol[…]L^−1] | protective effect against SH-SY5Y cell damage by MPP+ (cell viability) [3] | CC50 at 48 h [4] [nM]
N#Cc1ccccc1NS(=O)(=O)c1cc(NC(=O)c2cccc3ccc(=O)oc23)ccn1 [Compound 6, N-(2-(N-(2-cyanophenyl)aminosulfonyl)-pyridin-4-yl)-2-oxo-2H-chromene-8-amide] | 1700 | >20 | – | –
O=C(Nc1ccnc(S(=O)(=O)Nc2cccc3ccc(Br)cc23)c1)c1cccc2ccc(=O)oc12 [Compound 15, N-(2-(N-(7-bromonaphth-1-yl)aminosulfonyl)-pyridin-4-yl)-2-oxo-2H-chromene-8-amide] | 154 | >20 | more obvious protective effects | –
O=C(Nc1ccnc(S(=O)(=O)Nc2ccc(Cl)c(Br)c2)c1)c1cccc2ccc(=O)oc12 [Compound 14, N-(2-(N-(3-bromo-4-chlorophenyl)aminosulfonyl)-pyridin-4-yl)-2-oxo-2H-chromene-8-amide] | 195 | >20 | more obvious protective effects | –
COc1ccc(NS(=O)(=O)c2cc(NC(=O)c3cccc4ccc(=O)oc34)ccn2)cc1 [Compound 12, N-(2-(N-(4-methoxylphenyl)aminosulfonyl)-pyridin-4-yl)-2-oxo-2H-chromene-8-amide] | 2360 | >20 | – | –
CC(=O)O[C@H]1C(=O)[C@@]2(C)[C@H]([C@H](OC(=O)c3ccccc3)[C@]3(O)C[C@H](OC(=O)[C@H](O)[C@@H](NC(=O)c4ccccc4)c4ccccc4)C(C)=C1C3(C)C)[C@]1(OC(C)=O)CO[C@@H]1C[C@@H]2O [Taxol, reference compound] | – | – | – | 21
O=C(Nc1ccnc(S(=O)(=O)Nc2ccc(Cl)cc2)c1)c1cccc2ccc(=O)oc12 [Compound 1, N-(2-(N-(4-chlorophenyl)aminosulfonyl)-pyridin-4-yl)-2-oxo-2H-chromene-8-amide] | 86 | >20 | more obvious protective effects | –
O=C(Nc1ccnc(S(=O)(=O)Nc2ccccc2Cl)c1)c1cccc2ccc(=O)oc12 [Compound 3, N-(2-(N-(2-chlorophenyl)aminosulfonyl)-pyridin-4-yl)-2-oxo-2H-chromene-8-amide] | 1230 | >20 | – | –
O=C(Nc1ccnc(S(=O)(=O)Nc2ccc(F)c(F)c2)c1)c1cccc2ccc(=O)oc12 [Compound 13, N-(2-(N-(3,4-difluorophenyl)aminosulfonyl)-pyridin-4-yl)-2-oxo-2H-chromene-8-amide] | 80 | >20 | more obvious protective effects | –

Continued by falling IC50 [2], values first:

IC50 [2] [nM] | Compound | CC50 [1] [μmol[…]L^−1] | protective effect against SH-SY5Y cell damage by MPP+ (cell viability) [3] | CC50 at 48 h [4] [nM]
896 | O=C(Nc1ccnc(S(=O)(=O)Nc2ccc(O)cc2)c1)c1cccc2ccc(=O)oc12 [Compound 11, N-(2-(N-(4-hydroxyphenyl)aminosulfonyl)-pyridin-4-yl)-2-oxo-2H-chromene-8-amide] | >20 | – | –
896 | CS(=O)(=O)c1ccc(NS(=O)(=O)c2cc(NC(=O)c3cccc4ccc(=O)oc34)ccn2)cc1 [Compound 8, N-(2-(N-(4-methylsulfonylphenyl)aminosulfonyl)-pyridin-4-yl)-2-oxo-2H-chromene-8-amide] | >20 | – | –
871 | O=C(Nc1ccnc(S(=O)(=O)Nc2cccc3ncccc23)c1)c1cccc2ccc(=O)oc12 [Compound 17, N-(2-(N-(quinoline-5-yl)aminosulfonyl)-pyridin-4-yl)-2-oxo-2H-chromene-8-amide] | >20 | – | –
652 | O=C(Nc1ccnc(S(=O)(=O)Nc2ccc(-c3ccccc3)cc2)c1)c1cccc2ccc(=O)oc12 [Compound 10, N-(2-(N-(4-phenylphenyl)aminosulfonyl)-pyridin-4-yl)-2-oxo-2H-chromene-8-amide] | >20 | – | –
359 | O=C(Nc1ccnc(S(=O)(=O)Nc2cccc(Cl)c2)c1)c1cccc2ccc(=O)oc12 [Compound 2, N-(2-(N-(3-chlorophenyl)aminosulfonyl)-pyridin-4-yl)-2-oxo-2H-chromene-8-amide] | >20 | – | –
356 | Cc1ccc(NS(=O)(=O)c2cc(NC(=O)c3cccc4ccc(=O)oc34)ccn2)cc1 [Compound 4, N-(2-(N-(4-methylphenyl)aminosulfonyl)-pyridin-4-yl)-2-oxo-2H-chromene-8-amide] | >20 | – | –
180 | O=C(Nc1ccnc(S(=O)(=O)Nc2cccc([N+](=O)[O-])c2)c1)c1cccc2ccc(=O)oc12 [Compound 5, N-(2-(N-(3-nitrophenyl)aminosulfonyl)-pyridin-4-yl)-2-oxo-2H-chromene-8-amide] | >20 | – | –
120 | O=C(Nc1ccnc(S(=O)(=O)Nc2ccc(F)cc2)c1)c1cccc2ccc(=O)oc12 [Compound 7, N-(2-(N-(4-fluorophenyl)aminosulfonyl)-pyridin-4-yl)-2-oxo-2H-chromene-8-amide] | >20 | – | –
90 | O=C(Nc1ccnc(S(=O)(=O)Nc2ccc(C(F)(F)F)cc2)c1)c1cccc2ccc(=O)oc12 [Compound 9, N-(2-(N-(4-trifluoromethylphenyl)aminosulfonyl)-pyridin-4-yl)-2-oxo-2H-chromene-8-amide] | >20 | – | –
86 | O=C(Nc1ccnc(S(=O)(=O)Nc2cc(Cl)cc3ccccc23)c1)c1cccc2ccc(=O)oc12 [Compound 16, N-(2-(N-(3-chloronaphth-1-yl)aminosulfonyl)-pyridin-4-yl)-2-oxo-2H-chromene-8-amide] | >20 | – | –
